Converted amounts (≈) assume the structure as drawn.

Series [1] in a line: physchem. The note with it: pH 7.4 buffer.
A short description of series [2]: physchem. The note with it: octan-1-ol/water, pH 7.4, LogD7.4.

What is called solubility (thermodynamic) is solubility found after equilibrating the solid with the medium. As a reminder, the logD is lipophilicity at a set pH, counting ionised and neutral species. A lower logD goes with lower lipophilicity. In turn, `C[C@@H]1CN(c2nc(N3CCOCC3)c3ccc(Nc4ccccc4)nc3n2)C[C@H](C)O1` displayed a solubility (thermodynamic) in the series “physchem [1]” of 1.4 µM (≈ 0.589 µg/mL). The same compound came in with a logD in the series “physchem [2]” of 4.12.

Consider `CC(C)Cn1cnc(-c2ccccc2)c1-c1nc2c(N)ncnc2s1`, for which, in the series “physchem [1]”, the thermodynamic solubility was 70.8 µM (≈ 24.8 µg/mL). Besides, the logD in the series “physchem [2]” was 3.72.

On to `O=C(NCCNC(=O)c1cn(-c2ccccc2)nc1C(F)(F)F)c1ccc(Cl)cn1`, for which the thermodynamic solubility in the series “physchem [1]” was determined as 3.4 µM (≈ 1.49 µg/mL). Moreover, in “physchem [2]”, the logD worked out at 3.8.

In “physchem [1]”, `Cn1c2ccccc2c2cc(NC(=O)CCc3ccncc3)ccc21` showed a thermodynamic solubility of 11 µM (≈ 3.62 µg/mL). The compound also came in with a logD in “physchem [2]” of 3.8.

For the compound `CCCc1c(C(=O)Nc2ccc(F)cc2C)cnn1-c1ccccc1`, the thermodynamic solubility in “physchem [1]” is 3.1 µM (≈ 1.05 µg/mL). Moreover, in “physchem [2]”, the pH-dependent lipophilicity (logD) amounted to 3.89.

As to `c1ccc(Nc2cc(Nc3ccccc3)[nH]n2)cc1`, the solubility (thermodynamic) in the series “physchem [1]” was 12.6 µM (≈ 3.15 µg/mL). The compound further gave a logD in “physchem [2]” of 3.8.

In “physchem [1]”, `O=C(NC1CCCC1)C(c1ccncc1)N(Cc1ccco1)C(=O)c1ccc(-c2ccccc2)[nH]1` (configuration not stated) registered a thermodynamic solubility of 3.5 µM (≈ 1.64 µg/mL). Moreover, in the series “physchem [2]”, the logD worked out at 4.36.

Turning to `O=C(NCCCCc1ccccc1)c1ccccc1`, the solubility (thermodynamic) in the series “physchem [1]” was 52.5 µM (≈ 13.3 µg/mL). The logD in “physchem [2]” was determined as 3.8.

In the case of `N#Cc1cnn(-c2ccccc2)c1NC(=O)CN1CCOCC1`, the solubility (thermodynamic) in the series “physchem [1]” was 1020 µM (≈ 319 µg/mL). In the series “physchem [2]”, the logD came out at 0.5.

Compound `CC1(C)C(=O)N(c2ccc(SC(F)(F)F)cc2)C(=O)N1Cc1ccnc(N2CCOCC2)c1` displayed a thermodynamic solubility in the series “physchem [1]” of 3 µM (≈ 1.44 µg/mL). In the series “physchem [2]”, the logD turned out to be 3.73.

Consider `Cc1ccc(CO)cc1N(C)c1ccnc(Nc2cc(N3CCCC3)cc(N3CCOCC3)c2)n1`, for which the thermodynamic solubility in “physchem [1]” was 11.5 µM (≈ 5.46 µg/mL). This compound also returned a pH-dependent lipophilicity (logD) in “physchem [2]” of 3.8.

As for `COc1cc(Nc2nccc(N(C)c3cc(CO)ccc3C)n2)cc(N2CCOCC2)c1`, the thermodynamic solubility in “physchem [1]” was found to be 56.2 µM (≈ 24.5 µg/mL). Moreover, the logD in the series “physchem [2]” came out at 3.9.

Turning to `CCN(c1ccnc(Nc2cc(N3CCOCC3)cc(N3CCOCC3)c2)n1)c1cc(CO)ccc1C`, the solubility (thermodynamic) in “physchem [1]” worked out at 72.4 µM (≈ 36.5 µg/mL). This compound gave a logD in “physchem [2]” of 3.8.

In the series “physchem [1]”, `O=C(Nc1ccccc1)c1ccc(OCCCN2CCCC2)cc1OCc1ccccc1F` came in with a solubility (thermodynamic) of 141 µM (≈ 63.4 µg/mL). This compound showed a logD in the series “physchem [2]” of 3.85.

For `Cc1c(Oc2ccc(S(C)(=O)=O)cc2F)ncnc1OC1CCN(C(=O)OC(C)C)CC1`, the thermodynamic solubility in the series “physchem [1]” is 3 µM (≈ 1.4 µg/mL). This compound also came in with a logD in the series “physchem [2]” of 3.7.

In the series “physchem [1]”, `CCn1cc(NC(=O)Cc2ccc(Oc3ccnc4cc(F)ccc34)cc2OC)cn1` gave a thermodynamic solubility of 2 µM (≈ 0.841 µg/mL). In addition, the logD in “physchem [2]” came to 3.93.

Regarding `COc1ccc2c(Oc3ccc(CC(=O)Nc4n[nH]c(C)c4C)c(OC)c3)ccnc2c1`, the thermodynamic solubility in the series “physchem [1]” is 8.3 µM (≈ 3.59 µg/mL). Also, in the series “physchem [2]”, the logD was determined as 3.78.

In “physchem [1]”, `CNc1cccc(CCOc2ccc(C[C@H](NC(=O)c3ccccc3Cl)C(=O)O)cc2)n1` yielded a solubility (thermodynamic) of 398 µM (≈ 181 µg/mL). Moreover, the log distribution coefficient (logD) in “physchem [2]” was -0.31.

`CNc1cccc(CCOc2ccc(C[C@H](NC(=O)c3c(F)cccc3Cl)C(=O)O)cc2)n1` showed a solubility (thermodynamic) in “physchem [1]” of 1230 µM (≈ 581 µg/mL). Also, the logD in “physchem [2]” is -0.42.

With `CNc1cccc(CCOc2ccc(C[C@H](NC(=O)c3c(Cl)cccc3Cl)C(=O)O)cc2)n1`, in “physchem [1]”, the thermodynamic solubility was 1510 µM (≈ 739 µg/mL). The same compound yielded a logD in “physchem [2]” of -0.15.

The compound `CNc1cccc(CCCc2ccc(C[C@H](NC(=O)c3c(Cl)cccc3Cl)C(=O)O)cc2)n1` showed a solubility (thermodynamic) in “physchem [1]” of 1510 µM (≈ 736 µg/mL). In “physchem [2]”, the logD was found to be 0.57.

On to `O=C(N[C@@H](Cc1ccc(OCCc2ccc3c(n2)NCCC3)cc1)C(=O)O)c1c(Cl)cccc1Cl`, for which, in “physchem [1]”, the solubility (thermodynamic) was found to be 107 µM (≈ 55.1 µg/mL). This compound yielded a logD in “physchem [2]” of 0.33.

With `O=C(N[C@@H](Cc1ccc(OCCNc2nc3ccccc3[nH]2)cc1)C(=O)O)c1c(Cl)cccc1Cl`, in the series “physchem [1]”, the solubility (thermodynamic) was 324 µM (≈ 166 µg/mL). Also, the logD in the series “physchem [2]” turned out to be 0.6.

For the compound `O=C(Nc1ccc(N2CCOCC2)cc1)c1nnc(NC(=O)C2(c3ccc(Cl)cc3)CCCC2)o1`, the solubility (thermodynamic) in the series “physchem [1]” is 8.7 µM (≈ 4.31 µg/mL). The logD in “physchem [2]” is 3.72.

As for `O=c1oc(-c2ccccc2)cc2ccccc12`, in the series “physchem [1]”, the thermodynamic solubility worked out at 11.5 µM (≈ 2.56 µg/mL). The compound further yielded a logD in the series “physchem [2]” of 3.84.

Regarding `CCn1c(-c2nonc2N)nc2c(C#CC(C)(C)O)ncc(OCC3CCCNC3)c21` (configuration not stated), in the series “physchem [1]”, the thermodynamic solubility is 135 µM (≈ 57.4 µg/mL). In the series “physchem [2]”, the logD came to 0.6.

With `O=S(=O)(Cc1c(F)cccc1F)N1CCN(c2ncccc2C(F)(F)F)CC1`, the solubility (thermodynamic) in “physchem [1]” is 2 µM (≈ 0.843 µg/mL). This compound also showed a logD in the series “physchem [2]” of 3.9.

Compound `Cc1ncc(C(N)=O)nc1-c1ccc([C@H]2CC[C@H](C(=O)O)CC2)cc1` yielded a thermodynamic solubility in the series “physchem [1]” of 1230 µM (≈ 418 µg/mL). The logD in the series “physchem [2]” amounted to 0.22.

`CS(=O)(=O)C1(c2cc(N3CCOCC3)nc(-c3cccc4[nH]ccc34)n2)CCNCC1` returned a thermodynamic solubility in the series “physchem [1]” of 234 µM (≈ 104 µg/mL). This compound also yielded a logD in the series “physchem [2]” of 0.7.

The compound `O=C(CO)N1CCC[C@@H]1COc1cccc2ncnc(Nc3ccc(OCc4ccccn4)c(Cl)c3)c12` registered a thermodynamic solubility in the series “physchem [1]” of 2.2 µM (≈ 1.14 µg/mL). Further, the logD in “physchem [2]” was 3.71.

Turning to `CC(C)(C)Cn1c(CN2C(=O)CC3(CCNCC3)C2=O)cc2cnc(C#N)nc21`, in the series “physchem [1]”, the thermodynamic solubility came out at 575 µM (≈ 227 µg/mL). The same compound registered a logD in the series “physchem [2]” of 0.75.

Turning to `Cc1ccc(Oc2ccc(Nc3ncnc4cccc(O[C@H](C)C(=O)N(C)CCO)c34)cc2C)cn1`, the thermodynamic solubility in “physchem [1]” turned out to be 63.1 µM (≈ 30.8 µg/mL). The compound further had a pH-dependent lipophilicity (logD) in “physchem [2]” of 3.85.

For `COc1cccc(-c2c[nH]c(-c3ccccc3)n2)c1`, the thermodynamic solubility in the series “physchem [1]” came out at 36.3 µM (≈ 9.09 µg/mL). Also, the logD in the series “physchem [2]” was 3.8.

Compound `Cc1ccc(-c2nn(C(C)(C)C)c3ncnc(N)c23)cc1` displayed a thermodynamic solubility in “physchem [1]” of 9.8 µM (≈ 2.76 µg/mL). This compound showed a logD in “physchem [2]” of 4.1.

`CCn1c2ccccc2c2cc(NC(=O)CCc3ccncc3)ccc21` gave a solubility (thermodynamic) in “physchem [1]” of 2 µM (≈ 0.687 µg/mL). This compound also had a logD in the series “physchem [2]” of 3.75.

In the series “physchem [1]”, `c1ccc(-c2c[nH]c(-c3ccccc3)n2)cc1` came in with a solubility (thermodynamic) of 151 µM (≈ 33.3 µg/mL). In “physchem [2]”, this compound registered a logD of 3.8.

Compound `Cn1c(=O)c2[nH]c(-c3cccnc3)nc2n(C)c1=O` gave a thermodynamic solubility in “physchem [1]” of 219 µM (≈ 56.3 µg/mL). The logD in the series “physchem [2]” is 0.7.

Turning to `Cc1cc(C)cc(-c2[nH]c3sc(C(C)(C)C(=O)N4C5CCC4CC5)cc3c2CCN2CCN(CC(=O)N(C)C)CC2)c1`, the solubility (thermodynamic) in the series “physchem [1]” is 100 µM (≈ 59 µg/mL). In the series “physchem [2]”, this compound returned a logD of 4.13.

With `Cc1ccc(Oc2ccc(Nc3ncnc4cccc(O[C@H](C)C(=O)N5CCOCC5)c34)cc2C)cn1`, in “physchem [1]”, the solubility (thermodynamic) amounted to 7.6 µM (≈ 3.8 µg/mL). Moreover, in the series “physchem [2]”, the logD is 4.14.

For the compound `CCn1c(=O)ccc2cc(COc3cc(F)cc(C4(OC)CCOCC4)c3)ccc21`, in “physchem [1]”, the thermodynamic solubility was 1.7 µM (≈ 0.7 µg/mL). The logD in the series “physchem [2]” is 3.89.

Turning to `Oc1ccc(-c2nc3ccccc3s2)cc1`, the solubility (thermodynamic) in “physchem [1]” turned out to be 7.9 µM (≈ 1.8 µg/mL). For the same compound, in “physchem [2]”, the logD was 4.1.

Consider `Cc1cc(C)cc(-c2[nH]c3ccc(C(C)(C)C(=O)N4C5CCC4CC5)cc3c2CCNCCCCc2ccncc2)c1`, for which, in “physchem [1]”, the solubility (thermodynamic) was found to be 35.5 µM (≈ 20 µg/mL). In the series “physchem [2]”, this compound had a logD of 4.3.

For the compound `NC(=O)COc1ccc(OCCNCC(O)COc2ccccc2)cc1` (configuration not stated), the thermodynamic solubility in the series “physchem [1]” turned out to be 661 µM (≈ 238 µg/mL). The same compound showed a logD in “physchem [2]” of 0.63.

As for `c1ccc(Nc2ccnc(Nc3ccccc3)n2)cc1`, the thermodynamic solubility in “physchem [1]” turned out to be 15.1 µM (≈ 3.96 µg/mL). This compound also returned a logD in the series “physchem [2]” of 4.06.

In turn, `Cc1cc(C)cc(-c2[nH]c3ccc(C(C)(C)C(=O)N4C5CCC4CC5)cc3c2[C@H](C)CNCCc2ccncc2)c1` had a solubility (thermodynamic) in “physchem [1]” of 148 µM (≈ 81.2 µg/mL). The compound further had a pH-dependent lipophilicity (logD) in the series “physchem [2]” of 4.35.

The compound `COc1cc2ncnc(Nc3cc4ccccc4cn3)c2cc1OC` returned a thermodynamic solubility in “physchem [1]” of 0.3 µM (≈ 0.0997 µg/mL). Besides, the logD in “physchem [2]” turned out to be 3.9.

The values are drawn from ChEMBL document CHEMBL3301361, “Experimental in vitro DMPK and physicochemical data on a set of publicly disclosed compounds”.
